Reference: ChEMBL document CHEMBL1201862, “PubChem BioAssay data set” (2004)
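How tested: cells in 96-well plates exposed to compound for 48 hours at five concentrations. Here, GI50 denotes the concentration required for 50% inhibition of growth.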 Activity calls are given as the source filed them. Cut-off read from the data, not from the text of the source: active = GI50 up to about 1.1 µM and inactive = higher.

Columns and labels:
Assay in all cases: growth of human tumour cells (NCI), 48 h
CCRF-CEM = tested on: CCRF-CEM
NCI-H460 = tested on: NCI-H460
HCT-116 = tested on: HCT-116
Malme-3M = tested on: Malme-3M
UACC-62 = tested on: UACC-62
LXFL 529 = tested on: LXFL 529
SK-MEL-28 = tested on: SK-MEL-28
SW-620 = tested on: SW-620
SN12C = tested on: SN12C
HCC 2998 = tested on: HCC 2998
A549 = tested on: A549
LOX IMVI = tested on: LOX IMVI
SK-OV-3 = tested on: SK-OV-3
HOP-92 = tested on: HOP-92
M14 = tested on: M14
DMS-273 = tested on: DMS-273
RXF 631 = tested on: RXF 631
SK-MEL-5 = tested on: SK-MEL-5
KM-20L2 = tested on: KM-20L2
COLO 205 = tested on: COLO 205
UACC-257 = tested on: UACC-257
SF-295 = tested on: SF-295
SF-268 = tested on: SF-268
HOP-62 = tested on: HOP-62
UO-31 = tested on: UO-31
DMS-114 = tested on: DMS-114
HL-60 = tested on: HL-60
NCI-H226 = tested on: NCI-H226
TK-10 = tested on: TK-10
OVCAR-4 = tested on: OVCAR-4
HOP-18 = tested on: HOP-18
HT-29 = tested on: HT-29
U-251 = tested on: U-251
OVCAR-5 = tested on: OVCAR-5
M19-MEL = tested on: M19-MEL
OVCAR-3 = tested on: OVCAR-3
SNB-19 = tested on: SNB-19
HCT-15 = tested on: HCT-15
ACHN = tested on: ACHN
NCI-H23 = tested on: NCI-H23
IGROV-1 = tested on: IGROV-1
A498 = tested on: A498
MOLT-4 = tested on: MOLT-4
CAKI-1 = tested on: CAKI-1
OVCAR-8 = tested on: OVCAR-8
RPMI-8226 = tested on: RPMI-8226
SR = tested on: SR
786-0 = tested on: 786-0
K562 = tested on: K562
SNB-75 = tested on: SNB-75
RXF 393 = tested on: RXF 393
SNB-78 = tested on: SNB-78
KM12 = tested on: KM12
NCI-H522 = tested on: NCI-H522
DLD-1 = tested on: DLD-1
SF-539 = tested on: SF-539
SK-MEL-2 = tested on: SK-MEL-2
EKVX = tested on: EKVX
XF498 = tested on: XF498
MDA-MB-435 = tested on: MDA-MB-435
MCF7 = tested on: MCF7
DU-145 = tested on: DU-145
Hs-578T = tested on: Hs-578T
PC-3 = tested on: PC-3
NCI/ADR-RES = tested on: NCI/ADR-RES
MDA-N = tested on: MDA-N
BT-549 = tested on: BT-549
MDA-MB-231 = tested on: MDA-MB-231
T47D = tested on: T47D

Measured: GI50

CCOC(=O)C1C2CCC(C2)C1(CCl)C(=O)OCC (stereo unspecified)
> 100 µM: HCT-15
inactive: CCRF-CEM > 100 µM | NCI-H460 > 100 µM | HCT-116 > 100 µM | Malme-3M > 100 µM | UACC-62 > 100 µM | LXFL 529 > 100 µM | SK-MEL-28 > 100 µM | SW-620 > 100 µM | SN12C > 100 µM | HCC 2998 > 100 µM | A549 > 100 µM | LOX IMVI > 100 µM | SK-OV-3 > 100 µM | HOP-92 36.6 µM | M14 > 100 µM | DMS-273 > 100 µM | RXF 631 > 100 µM | SK-MEL-5 > 100 µM | KM-20L2 > 100 µM | COLO 205 > 100 µM | UACC-257 > 100 µM | SF-295 > 100 µM | SF-268 > 100 µM | HOP-62 > 100 µM | UO-31 > 100 µM | DMS-114 > 100 µM | HL-60 > 100 µM | NCI-H226 > 100 µM | TK-10 > 100 µM | OVCAR-4 > 100 µM | HOP-18 > 100 µM | HT-29 > 100 µM | U-251 > 100 µM | OVCAR-5 > 100 µM | M19-MEL > 100 µM | OVCAR-3 > 100 µM | SNB-19 > 100 µM | ACHN > 100 µM | NCI-H23 > 100 µM | IGROV-1 > 100 µM | A498 > 100 µM | MOLT-4 > 100 µM | CAKI-1 > 100 µM | OVCAR-8 > 100 µM | RPMI-8226 > 100 µM | SR > 100 µM | 786-0 > 100 µM | K562 > 100 µM

CCc1ccc(Cc2ccc(CC)c(NC(=O)C(=O)C3NC(=S)NC3=O)c2CC)c(CC)c1NC(=O)C(=O)C1NC(=S)NC1=O (stereo unspecified)
inactive: CCRF-CEM > 100 µM | NCI-H460 > 100 µM | HCT-116 > 100 µM | Malme-3M > 100 µM | UACC-62 > 100 µM | LXFL 529 > 100 µM | SK-MEL-28 > 100 µM | SW-620 > 100 µM | HCC 2998 > 100 µM | A549 > 100 µM | SNB-75 35.2 µM | LOX IMVI > 100 µM | SK-OV-3 > 100 µM | HOP-92 38 µM | M14 > 100 µM | DMS-273 > 100 µM | RXF 631 > 100 µM | RXF 393 > 100 µM | SK-MEL-5 > 100 µM | KM-20L2 > 100 µM | COLO 205 > 100 µM | UACC-257 > 100 µM | SF-268 > 100 µM | SNB-78 > 100 µM | HOP-62 > 100 µM | KM12 > 100 µM | UO-31 51.8 µM | NCI-H522 > 100 µM | HL-60 > 100 µM | TK-10 > 100 µM | OVCAR-4 > 100 µM | DLD-1 > 100 µM | U-251 > 100 µM | OVCAR-5 > 100 µM | M19-MEL > 100 µM | OVCAR-3 > 100 µM | SNB-19 > 100 µM | ACHN > 100 µM | NCI-H23 > 100 µM | SF-539 > 100 µM | SK-MEL-2 > 100 µM | IGROV-1 > 100 µM | A498 > 100 µM | MOLT-4 > 100 µM | CAKI-1 > 100 µM | EKVX > 100 µM | OVCAR-8 > 100 µM | RPMI-8226 > 100 µM | 786-0 > 100 µM | K562 > 100 µM
> 100 µM: HCT-15

CC(=O)NC1=C(C)C(=O)c2c(nc3n2CCC3O)C1=O (stereo unspecified)
> 100 µM: HCT-15
inactive: CCRF-CEM 4.24 µM | NCI-H460 > 87.7 µM | HCT-116 23.7 µM | XF498 18.2 µM | Malme-3M 19.1 µM | UACC-62 20.1 µM | LXFL 529 19.6 µM | SK-MEL-28 > 76.4 µM | SW-620 44.4 µM | SN12C 37.3 µM | HCC 2998 54 µM | A549 > 64 µM | SNB-75 > 100 µM | LOX IMVI 29.7 µM | SK-OV-3 > 61.7 µM | HOP-92 18.6 µM | M14 > 100 µM | DMS-273 44.8 µM | RXF 393 21.5 µM | SK-MEL-5 51.9 µM | KM-20L2 > 72.1 µM | COLO 205 > 100 µM | UACC-257 26.3 µM | SF-295 > 100 µM | SF-268 34.8 µM | SNB-78 31.3 µM | HOP-62 > 100 µM | KM12 > 100 µM | UO-31 > 100 µM | NCI-H522 23.7 µM | DMS-114 5.56 µM | HL-60 8.28 µM | NCI-H226 27.4 µM | TK-10 > 100 µM | OVCAR-4 13.6 µM | DLD-1 39.5 µM | HOP-18 > 100 µM | HT-29 > 100 µM | U-251 33.1 µM | OVCAR-5 > 64.3 µM | M19-MEL 25.6 µM | OVCAR-3 10.8 µM | SNB-19 > 100 µM | ACHN > 100 µM | NCI-H23 35.4 µM | SF-539 24.4 µM | SK-MEL-2 19.5 µM | IGROV-1 > 54.2 µM | A498 > 100 µM | MOLT-4 3.44 µM | CAKI-1 > 100 µM | EKVX 24.7 µM | OVCAR-8 20.4 µM | RPMI-8226 18.2 µM | SR 9.46 µM | 786-0 43.4 µM | K562 19.1 µM

COc1ccc2c(c1)[C@@H](NC(C)=O)CCc1cc(OC)c(OC)c(OC)c1-2
0.015 µM: HCT-15
inactive: BT-549 1.85 µM | TK-10 2.54 µM | OVCAR-4 9.84 µM | HOP-18 > 100 µM | OVCAR-5 1.5 µM | T47D > 100 µM | EKVX 8.34 µM
active: CCRF-CEM 0.0398 µM | NCI-H460 0.0168 µM | HCT-116 0.0148 µM | XF498 0.0137 µM | Malme-3M 0.0216 µM | UACC-62 0.0154 µM | LXFL 529 < 0.0137 µM | SK-MEL-28 < 0.017 µM | SW-620 0.0172 µM | MDA-MB-435 0.0132 µM | MCF7 0.0463 µM | DU-145 0.0185 µM | SN12C 0.02 µM | HCC 2998 0.0174 µM | A549 0.0176 µM | SNB-75 0.0258 µM | LOX IMVI 0.018 µM | SK-OV-3 0.129 µM | Hs-578T 0.0169 µM | HOP-92 0.0219 µM | PC-3 0.0251 µM | M14 0.0166 µM | DMS-273 < 0.01 µM | NCI/ADR-RES 0.0198 µM | RXF 393 0.0151 µM | MDA-N 0.0128 µM | SK-MEL-5 0.019 µM | KM-20L2 0.0117 µM | COLO 205 0.0135 µM | UACC-257 0.108 µM | SF-295 0.0151 µM | SF-268 0.0154 µM | SNB-78 0.0107 µM | HOP-62 0.0216 µM | KM12 0.0131 µM | UO-31 0.0296 µM | NCI-H522 0.013 µM | DMS-114 0.0118 µM | HL-60 < 0.012 µM | NCI-H226 0.0891 µM | MDA-MB-231 0.0228 µM | DLD-1 < 0.0138 µM | HT-29 0.0146 µM | U-251 0.0173 µM | M19-MEL < 0.0154 µM | OVCAR-3 0.0144 µM | SNB-19 0.0222 µM | ACHN 0.0179 µM | NCI-H23 0.0143 µM | SF-539 0.013 µM | SK-MEL-2 0.0174 µM | IGROV-1 0.0173 µM | A498 0.0143 µM | MOLT-4 0.0206 µM | CAKI-1 0.0206 µM | OVCAR-8 0.0157 µM | RPMI-8226 0.0206 µM | SR 0.0834 µM | 786-0 0.019 µM | K562 0.0128 µM
